Consider one compound from US6958341B2, “Pyrazolopyrimidines as CRF antagonists” (Bristol-Myers Squibb Pharma Company, priority 1999, dated 2005).

Each structure is given as a SMILES string.

In general, melting point refers to the temperature of the solid-liquid transition.

For `CCC(CC)c1c(O)nn2c(-c3ccc(Cl)cc3Cl)c(C)cnc12` [Example 92, 7-(2,4-dichlorophenyl)-2-hydroxy-6-methyl-3-(3-pentyl)pyrazolo[1,5-a]pyrimidine], the melting point lay in the range of 227 to 228 °C.
